Our source for the TGI values is PubChem BioAssay (NCI).

Among the test systems are KM12 colon; A498 renal; EKVX NSCLC; UO-31 renal; TK-10 renal; BT-549 breast; DU-145 prostate; UACC-257 melanoma; HS 578T breast; HOP-62 NSCLC.
Assay in all cases: NCI anticancer screen, dose series, 48 h

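Exposure lasted 48 hours, with cells grown in 96-well plates and compounds tested at five concentrations. At the TGI there is no net growth.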

Regarding `NS(=O)(=O)c1ccc(N=Nc2ccc(O)cc2)cc1`, the TGI in the test on KM12 colon is over 100 µM; with A498 renal it was over 100 µM; with EKVX NSCLC, over 100 µM; with UO-31 renal, over 100 µM; in the test on TK-10 renal it was over 100 µM; in the test on BT-549 breast, 62.5 µM. Also, the TGI in the test with DU-145 prostate, in the test on UACC-257 melanoma, with HS 578T breast and in the test on HOP-62 NSCLC was over 100 µM in each case.
Turning to `Cc1ccc(N2C=Nn3c(nc4sc5c(c4c3=O)CCCC5)C2)cc1`, the TGI in the test with KM12 colon, with A498 renal, with EKVX NSCLC, in the test with UO-31 renal, with TK-10 renal and with BT-549 breast was over 100 µM in each case. For the same molecule, the TGI is over 100 µM in the test on DU-145 prostate, over 100 µM in the test with UACC-257 melanoma, 92 µM in the test with HS 578T breast and 69.2 µM in the test with HOP-62 NSCLC.
With `O=C(O)CN1CCN2CCCCCCCCN(CC1)CCN(CC(=O)O)CC2`, the TGI in the test on KM12 colon, in the test with A498 renal, in the test on EKVX NSCLC, with UO-31 renal, in the test with TK-10 renal and in the test on BT-549 breast was over 100 µM in each case. Also, the TGI with DU-145 prostate, in the test with UACC-257 melanoma, with HS 578T breast and in the test on HOP-62 NSCLC was over 100 µM in each case.
Take `Cc1cc(-c2nc3ccc(F)cc3s2)ccc1NC(=O)C(N)CCCCN` (stereo not given): the TGI in the test with KM12 colon came to 4.87 µM; in the test on A498 renal, 24 µM; in the test with EKVX NSCLC, 26.5 µM; with UO-31 renal, 16.1 µM; with TK-10 renal, 14.5 µM; with BT-549 breast, 28.3 µM. Moreover, the TGI in the test on DU-145 prostate amounted to 26.2 µM; with UACC-257 melanoma, 28.1 µM; with HS 578T breast, 27.1 µM; with HOP-62 NSCLC it was 12.7 µM.
For `CC(C)CC(C#CCCOC(=O)c1ccccc1)OC(=O)c1ccccc1` (stereo not given), the TGI in the test with KM12 colon, in the test on A498 renal, in the test with EKVX NSCLC, in the test on UO-31 renal, in the test with TK-10 renal and in the test on BT-549 breast was over 10 µM in each case. The TGI in the test with DU-145 prostate, in the test on UACC-257 melanoma, in the test with HS 578T breast and in the test with HOP-62 NSCLC was over 10 µM each time.
As to `CC1(C)C(CBr)=[N+]([O-])C(C)(C)N1O`, the TGI is over 10 µM in the test on KM12 colon; over 10 µM with A498 renal; over 8.02 µM with EKVX NSCLC; over 10 µM in the test with UO-31 renal; over 10 µM with TK-10 renal; 5.43 µM with BT-549 breast. The TGI with DU-145 prostate, in the test with UACC-257 melanoma, in the test on HS 578T breast and with HOP-62 NSCLC was over 10 µM each time.
For the molecule `COc1cc(/C=C2\N=C(c3ccccc3)N(c3nc4ccccc4s3)C2=O)cc(OC)c1OC`, the TGI with KM12 colon is over 100 µM; in the test with A498 renal, over 100 µM; with EKVX NSCLC, over 100 µM; with UO-31 renal, over 100 µM; with TK-10 renal it was over 100 µM; in the test on BT-549 breast, 59.4 µM. For the same molecule, the TGI in the test with DU-145 prostate, in the test with UACC-257 melanoma, in the test on HS 578T breast and with HOP-62 NSCLC was over 100 µM each time.
Turning to `CC1(C)CC[C@]2(C)[C@@H](O)C[C@]3(C)C(=CC[C@@H]4[C@@]5(C)CC[C@H](O)C(C)(C)[C@@H]5CC[C@]43C)[C@@H]2C1`, the TGI in the test on KM12 colon was over 100 µM; with A498 renal, 99.2 µM; in the test with EKVX NSCLC it was over 100 µM; with UO-31 renal, over 100 µM; in the test with TK-10 renal, 93.2 µM; with BT-549 breast, over 100 µM. In addition, the TGI in the test with DU-145 prostate was over 100 µM; in the test on UACC-257 melanoma, over 100 µM; in the test with HS 578T breast, 99.3 µM; in the test with HOP-62 NSCLC, over 100 µM.
Turning to `Cc1c(C)c(S(=O)(=O)N(CCCN)OCCCN)c(C)c2c1OC(C)(C)CC2`, the TGI with KM12 colon was determined as 25.6 µM; in the test with A498 renal it was 26.2 µM; in the test with EKVX NSCLC it was 30.4 µM; with UO-31 renal it was 31.5 µM; in the test with TK-10 renal, 28 µM; in the test on BT-549 breast, 31.4 µM. The TGI in the test on DU-145 prostate worked out at 29.5 µM; with UACC-257 melanoma, 27.3 µM; in the test on HS 578T breast, 29.6 µM; with HOP-62 NSCLC, 27.2 µM.
Regarding `Cn1c2ccccc2c2c3c(c4c5ccccc5n(C)c4c21)C(=O)N(Cc1ccccc1)C3=O`, the TGI with KM12 colon, with A498 renal, in the test with EKVX NSCLC, in the test with UO-31 renal, in the test with TK-10 renal and in the test on BT-549 breast was over 100 µM in each case. For the same molecule, the TGI in the test with DU-145 prostate, with UACC-257 melanoma, in the test with HS 578T breast and in the test on HOP-62 NSCLC was over 100 µM each time.
In the case of `COc1ccc(/C(=N/OCCCC(=O)O)c2cccs2)cc1`, the TGI in the test on KM12 colon, with A498 renal, in the test on EKVX NSCLC, in the test on UO-31 renal, with TK-10 renal and in the test with BT-549 breast was over 100 µM throughout. Besides, the TGI in the test on DU-145 prostate, with UACC-257 melanoma, with HS 578T breast and with HOP-62 NSCLC was over 100 µM throughout.
